Molecules are shown by their SMILES. Structures can show the parent of a compound that is named as a salt. Where two headings read alike, the source gives them in different places.

From patent US8580957B2, “Thetrahydroquinolines derivatives as bromodomain inhibitors” (GlaxoSmithKline LLC, priority 2009, dated 2013) come the findings set out here.

For data set [1], the system named is LPS induced IL-6 secretion from whole blood. The experiment in a line: Measurement of LPS Induced IL-6 Secretion from Whole Blood. The settings on record: LPS 200 ng/ml, 24 hours, read-out: pIC50 (IL-6 levels) (converted). The class given is cell-based. As for the experimental part: Measurement of LPS Induced IL-6 Secretion from Whole Blood
Activation of monocytic cells by agonists of toll-like receptors such as bacterial lipopolysaccharide (LPS) results in production of key inflammatory mediators including IL-6. Such pathways are widely considered to be central to the pathophysiology of a range of auto-immune and inflammatory disorders.
Compounds to be tested are diluted to give a range of appropriate concentrations of which 1 ul of the diluted stocks is added to a 96 well plate. Following addition of whole blood (130 ul) the plates are incubated at 37 degrees (5% CO2) for 30 min before the addition of 10 ul of 2.8 ug/ml LPS, diluted in complete RPMI 1640 (final concentration=200 ng/ml), to give a total volume of 140 ul per well. After further incubation for 24 hours at 37 degrees, 140 ul of PBS are added to each well. The plates are sealed, shaken for 10 minutes and then centrifuged (2500 rpm×10 min). 100 ul of the supernatant are removed and IL-6 levels assayed by immunoassay (typically by MesoScale Discovery technology) either immediately or following storage at −20 degrees. Concentration response curves for each compound was generated from the data and an IC50 value was calculated.

For data set [2], the system named is TNFα levels in LPS stimulated whole blood. The data set is described as follows: LPS Stimulated Whole Blood Measuring TNFα Levels Assay. The settings on record: LPS 200 ng/ml, 24 hours, read-out: pIC50 (TNFα levels) (converted). The data set is classed as cell-based. As for the experimental part: LPS Stimulated Whole Blood Measuring TNFα Levels Assay
Activation of monocytic cells by agonists of toll-like receptors such as bacterial lipopolysaccharide (LPS) results in production of key inflammatory mediators including TNFα. Such pathways are widely considered to be central to the pathophysiology of a range of auto-immune and inflammatory disorders.
Compounds to be tested are diluted to give a range of appropriate concentrations and 1 ul of the dilution stocks is added to wells of a 96 plate. Following addition of whole blood (130 ul) the plates are incubated at 37 degrees (5% CO2) for 30 min before the addition of 10 ul of 2.8 ug/ml LPS, diluted in complete RPMI 1640 (final concentration=200 ng/ml), to give a total volume of 140 ul per well. After further incubation for 24 hours at 37 degrees, 140 ul of PBS are added to each well. The plates are sealed, shaken for 10 minutes and then centrifuged (2500 rpm×10 min). 100 ul of the supernatant are removed and TNFα levels assayed by immunoassay (typically by MesoScale Discovery technology) either immediately or following storage at −20 degrees. Dose response curves for each compound was generated from the data and an IC50 value was calculated.

Data set [3] deals with Balb/c male mice given a lethal dose of LPS. The data set is described as follows: In Vivo Mouse Endotoxemia Model. The settings on record: 15 mg/kg LPS i.p.; compound 10 mg/kg intravenously 90 min later; summed across multiple repeat experiments. An excerpt:
In Vivo Mouse Endotoxemia Model
High doses of Endotoxin (bacterial lipopolysaccharide) administered to animals produce a profound shock syndrome including a strong inflammatory response, dysregulation of cardiovascular function, organ failure and ultimately mortality. This pattern of response is very similar to human sepsis and septic shock, where the body's response to a significant bacterial infection can be similarly life threatening.
To test the compounds of the invention groups of eight Balb/c male mice were given a lethal dose of 15 mg/kg LPS by intraperitoneal injection. Ninety minutes later, animals were dosed intravenously with vehicle (20% cyclodextrin 1% ethanol in apyrogen water) or compound (10 mg/kg). The survival of animals was monitored at 4 days.
Numbers of animals surviving at 4 days (summed across multiple repeat experiments)

Data set [4] deals with Human cell lines (n=33 comprising 15 heme cell lines, 14 breast cell lines and 4 other cell lines). The experiment in a line: Oncology Growth Assay (CellTiter-Glo). The class given is cell-based. To be noted: 72 hours. As for the experimental part: Human cell lines (n=33 comprising 15 heme cell lines, 14 breast cell lines and 4 other cell lines) were cultured in RPMI-1640 containing 10% fetal bovine serum, 1000 viable cells per well were plated in 384-well black flat bottom polystyrene plates (Greiner #781086) in 48 μl of culture media. All plates were placed at 5% CO2, 37° C. overnight. The following day one plate was harvested with CellTiter-Glo (CTG, Promega #G7573) for a time equal to 0 (T0) measurement and compound (20 point titration from 14.7 uM to […]) was added to the remaining plates. The final concentration of DMSO in all wells was 0.15%. Cells were incubated for 72 hours or the indicated time and each plate was developed with CellTiter-Glo reagent using a volume equivalent to the cell culture volume in the wells. Plates were shaken for approximately 2 minutes and chemiluminescent signal was read on the Analyst GT (Molecular Devices) or EnVision Plate Reader (Perkin Elmer).
Results were expressed as a percent of the TO and plotted against the compound concentration. The TO value was normalized to 100% and represents the number of cells at time of compound addition and the concentration response data were fit with a 4 parameter curve fit using XLfit software (model 205). The concentration that inhibited cell growth by 50% (gIC50) is the midpoint of the ‘growth window’ (between the TO and DMSO control). The Ymin−T0 value is determined by subtracting the T0 value (100%) from the Ymin value (%) determined from the fit of the concentration response curve. Values from the wells with no cells were subtracted from all samples for background correction.

For `CC(=O)N1c2ccc(-c3ccc(CN4CCCCC4)cc3)cc2[C@@H](Nc2ccc(F)cn2)C[C@H]1C` (racemic) [Example 137, (cis)-1-Acetyl-N-(5-fluoro-2-pyridinyl)-2-methyl-6-[4-(1-piperidinylmethyl)phenyl]-1,2,3,4-tetrahydro-4-quinolinamine formate salt], the IC50 in data set [1] and in data set [2] was at most 10 µM in each case. `CC(=O)N1c2ccc(-c3ccc(C(=O)O)cc3)cc2[C@H](Nc2ccc(Cl)cc2)C[C@@H]1C` [Example 6, 4-{(2S,4R)-1-acetyl-4-[(4-chlorophenyl)amino]-2-methyl-1,2,3,4-tetrahydro-6-quinolinyl}benzoic acid]: the “Animals surviving at 4 days (percent)” value in data set [3] is 58%. Further, in data set [3], the “Numbers of animals surviving at 4 days” value is 14/24. The IC50 in data set [4] (all 33 cell lines, read-out: gIC50 across all cell lines) is 0.035 to 9.2 µM; in data set [4] (breast cell lines, read-out: gIC50 for breast cell lines), 0.04 to 9.2 µM; in data set [4] (heme cell lines, read-out: gIC50 for heme cell lines), 0.035 to 0.844 µM; in data set [1], at most 10 µM. Consider `CC(=O)N1c2ccc(-c3ccc(CN(C)C)cc3)cc2[C@@H](Nc2ccccc2)C[C@H]1C` (racemic) [Example 35, 1-acetyl-6-{4-[(dimethylamino)methyl]phenyl}-2-methyl-N-phenyl-1,2,3,4-tetrahydro-4-quinolinamine], for which the melting point (commonly the temperature, or range, at which the solid turns liquid) was 90 °C. In turn, `CCNC(=O)c1ccc(-c2ccc3c(c2)[C@@H](Nc2ccc(Cl)cc2)C[C@@H](C)N3C(C)=O)cc1` (stereo in doubt) [Example 101, 4-{1-Acetyl-4-[(4-chlorophenyl)amino]-2-methyl-1,2,3,4-tetrahydro-6-quinolinyl}-N-ethylbenzamide] displayed a melting point of 134 °C. Take `CC(=O)N1c2ccc(-c3ccc(C#N)cc3)cc2[C@@H](Nc2ccc(F)cc2)C[C@H]1C` (racemic) [Example 62, 4-{1-acetyl-4-[(4-fluorophenyl)amino]-2-methyl-1,2,3,4-tetrahydro-6-quinolinyl}benzonitrile]: the melting point came out at 140 °C.

For `CCOC(=O)c1ccc(-c2ccc3c(c2)[C@@H](Nc2ccc(Cl)cc2)C[C@@H](C)N3C(C)=O)cc1` (stereo in doubt) [Example 119, Ethyl 4-{1-acetyl-4-[(4-chlorophenyl)amino]-2-methyl-1,2,3,4-tetrahydro-6-quinolinyl}benzoate], the melting point amounted to 114 °C. Regarding `CC(=O)N1c2ccc(-c3ccc(C(=O)N4CCOCC4)cc3)cc2C(Nc2ccc(Cl)cc2)CC1C` (centres unmarked) [Example 109], the melting point stood at 146 °C. Further, the IC50 in data set [2] is at most 10 µM. `CCN(c1ccccc1)[C@H]1C[C@@H](C)N(C(C)=O)c2ccc(-c3ccccc3)cc21` (stereo in doubt) [Example 87, 1-acetyl-N-ethyl-2-methyl-N,6-diphenyl-1,2,3,4-tetrahydro-4-quinolinamine] returned a melting point of 121 °C. Also, the IC50 in data set [2] was at most 10 µM.

For the compound `CC(=O)N1c2ccc(-c3ccc(CN4CCCCC4)cc3)cc2[C@@H](Nc2ccc(F)cc2)C[C@H]1C` (racemic) [Example 11, 1-Acetyl-2-methyl-N-(4-fluorophenyl)-6-[4-(1-piperidinylmethyl)phenyl]-1,2,3,4-tetrahydro-4-quinolinamine], the melting point is 106 °C. `CC(=O)N1c2ccc(-c3ccc(-c4nn[nH]n4)cc3)cc2[C@@H](Nc2ccc(Cl)cc2)C[C@H]1C` (stereo in doubt) [Example 121, 1-Acetyl-N-(4-chlorophenyl)-2-methyl-6-[4-(1H-tetrazol-5-yl)phenyl]-1,2,3,4-tetrahydro-4-quinolinamine] displayed a melting point of 250 °C. `CC(=O)N1c2ccc(-c3ccc(CN4CCCCC4)cc3)cc2[C@H](Nc2ccccc2)C[C@@H]1C` [Example 164, (2S,4R)-1-Acetyl-2-methyl-N-phenyl-6-[4-(1-piperidinylmethyl)phenyl]-1,2,3,4-tetrahydro-4-quinolinamine]: the IC50 in data set [1] and in data set [2] was at most 10 µM throughout.

With `COC(=O)c1ccc(-c2ccc3c(c2)C(Nc2ccc(C#N)cc2)CC(C)N3C(C)=O)cc1` (centres unmarked) [Example 82], the melting point came out at 252 °C. As to `CC[C@@H]1C[C@H](Nc2ccccc2)c2cc(-c3ccc(C(=O)O)cc3)ccc2N1C(C)=O` (racemic) [Example 162, 4-[(cis)-1-Acetyl-2-ethyl-4-(phenylamino)-1,2,3,4-tetrahydro-6-quinolinyl]benzoic acid], the IC50 in data set [2] was at most 10 µM. With `CC(=O)N1c2ccc(-c3ccc(CN4CCCCC4)cc3)cc2[C@@H](Nc2ccc(C)cn2)C[C@H]1C` (racemic) [Example 135, (cis)-1-Acetyl-2-methyl-N-(5-methyl-2-pyridinyl)-6-[4-(1-piperidinylmethyl)phenyl]-1,2,3,4-tetrahydro-4-quinolinamine formate salt], the IC50 in data set [2] is at most 10 µM.
